From patent US6518257B1, “1-substituted phenyl-1-(1h-imidazol-4-yl) alcohols, process for producing the same and use thereof” (Takeda Chemical Industries, Ltd., priority 1999, dated 2003)

How the values were obtained:
Rat Steroid C17,20-lyase = target: T1, Rat Steroid C17,20-lyase (Rattus norvegicus, UniProt P11715); assay: Assay of inhibitory activity on rat steroid C17,20-lyase (testis microsomes, [1,2-3H]-17-α-hydroxyprogesterone substrate, TLC); assay type: biochemical; conditions: rat testis microsomes (7 μg/10 μl), 10 nM [1,2-3H]-17-α-hydroxyprogesterone, NADPH, pH 7.4, 37° C., 7 minutes; products androstenedione and testosterone
T1 construct: Testes were excised from 13-week-old male SD rats, homogenized, and centrifuged to give microsomes; from tissue; host or cells: testis microsomes of 13-week-old male SD rats
T1 sequence (P11715 1-507): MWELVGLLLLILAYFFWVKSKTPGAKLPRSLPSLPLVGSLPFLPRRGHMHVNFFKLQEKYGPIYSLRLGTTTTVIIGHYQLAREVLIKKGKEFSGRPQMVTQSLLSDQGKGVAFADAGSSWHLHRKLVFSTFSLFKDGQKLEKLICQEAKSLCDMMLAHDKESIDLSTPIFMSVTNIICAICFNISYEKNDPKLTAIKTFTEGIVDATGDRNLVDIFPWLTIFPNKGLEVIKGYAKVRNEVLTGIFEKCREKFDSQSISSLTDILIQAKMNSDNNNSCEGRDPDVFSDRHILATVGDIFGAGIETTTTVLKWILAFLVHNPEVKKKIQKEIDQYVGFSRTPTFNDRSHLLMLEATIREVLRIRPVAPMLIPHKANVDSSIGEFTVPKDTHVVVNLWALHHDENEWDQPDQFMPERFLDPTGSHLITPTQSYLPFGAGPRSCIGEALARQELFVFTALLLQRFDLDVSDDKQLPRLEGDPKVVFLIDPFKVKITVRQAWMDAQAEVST
Method: Assay of Inhibitory Activity on Rat Steroid C17,20-lyase
The activity was determined according to The Prostate, vol. 26, 140-150 (1995).
Testes were excised from 13-week-old male SD rats, homogenized, and centrifuged to give microsomes. [1,2-^3H]-17-α-hydroxyprogesterone having a final concentration of 10 nM, NADPH solution and test compounds were dissolved in 10 μl of 100 mM phosphate buffer (pH 7.4) and microsome protein (7 μg/10 μl) was added. The reaction mixture was incubated at 37° C. for 7 minutes. Ethyl acetate (40 μl) was added and the mixture was centrifuged. The substrate and the products (androstenedione and testosterone) in the supernatant were separated by silica gel thin layer chromatography (TLC). The spots were detected and quantitatively determined by BAS 2000 Bioimage analyzer. The concentration of the test compounds necessary to reduce the amount of the products by 50% (IC50) relative to the amount of the products without test compound (control) as 100% was calculated, and shown in Table 1.

[1] = system: Testosterone Synthesis in Rats; assay: Assay of inhibitory activity on testosterone synthesis in rats (serum testosterone by radioimmunoassay); assay type: in vivo, rat; conditions: 50 mg/kg orally, 9-week-old male SD rats, serum testosterone two hours after administration, as percentage of control group
Method: Assay of Inhibitory Activity on Testosterone Synthesis in Rats
Test compounds (50 mg/kg) were orally administered to 9-week-old male SD (Sprague Dawley) rats. Two hours after administration of the compounds, blood was drawn and testosterone concentration in the obtained serum was measured by radioimmunoassay. The percentage (T/C, %) of the testosterone concentration of test compounds administration group to that of the control group was calculated, and taken as the inhibitory activity on testosterone synthesis.

SMILES	IC50 (Rat Steroid C17,20-lyase) [nM]	testosterone synthesis inhibitory activity (T/C, %) [1] [%]
CC(C)C(O)(c1ccc(-c2ccc(F)cc2)cc1)c1c[nH]cn1 (stereo not drawn) [Example 4, 1-(4′-fluoro[1,1′-biphenyl]-4-yl)-1-(1H-imidazol-4-yl)-2-methyl-1-propanol]	28	
CC(C)C(O)(c1cccc(-c2ccccc2)c1)c1c[nH]cn1 (stereo not drawn) [Example 6, 1-[1,1′-biphenyl]-3-yl-1-(1H-imidazol-4-yl)-2-methyl-1-propanol]	15	4.3
COc1ccc(-c2cccc(C(O)(c3c[nH]cn3)C(C)C)c2)cc1 (stereo not drawn) [Example 9, 1-(1H-imidazol-4-yl)-1-(4′-methoxy[1,1′-biphenyl]-3-yl)-2-methyl-1-propanol]	10	4.6

Continued, in another order:

IC50 (Rat Steroid C17,20-lyase) [nM]	SMILES	testosterone synthesis inhibitory activity (T/C, %) [1] [%]
8.3	CC(C)C(O)(c1cccc(-c2ccc(F)cc2)c1)c1c[nH]cn1 (stereo not drawn) [Example 13, 1-(4′-fluoro[1,1′-biphenyl]-3-yl)-1-(1H-imidazol-4-yl)-2-methyl-1-propanol]	4.7
12	Cc1ccccc1-c1cccc(C(O)(c2c[nH]cn2)C(C)C)c1 (stereo not drawn) [Example 17, 1-(1H-imidazol-4-yl)-2-methyl-1-(2′-methyl[1,1′-biphenyl]-3-yl)-1-propanol]	
11	CCC(O)(c1cccc(-c2ccc(F)cc2)c1)c1c[nH]cn1 (stereo not drawn) [Example 27, 1-[4′-fluoro[1,1′-biphenyl]-3-yl]-1-(1H-imidazol-4-yl)-1-propanol]	
